Experimental data published in patent publication US20210330606A1, “GLUCOSE CONSUMPTION ACCELERATOR AND GLYCOLYSIS ACCELERATOR” (SHINKO SANGYO Co., Ltd., priority 2018, published 2021).

Legend:
[1] = system: Rat-derived fibroblasts (Py-3Y1-S2, subculture strain); assay: Glucose consumption of rat-derived fibroblasts (relative value, control = 100); format: cell-based
Text: As drugs, 2-amino-1-cyclohexylethanol (Matrix Biochemicals), 2-aminoethanol (Tokyo Chemical Industry Co., Ltd.), 1-amino-2-propanol (Wako Pure Chemical Industries, Ltd.), 2-amino-1-phenylethanol (Tokyo Chemical Industry Co., Ltd.), 1, 3-bis[tris(hydroxymethyl)-methylamino]propane (Tokyo Chemical Industry Co., Ltd.), N-cyclohexylethanolamine (Tokyo Chemical Industry Co., Ltd.), diethanolamine (Wako Pure Chemical Industries, Ltd.), diethylamine (Wako Pure Chemical Industries, Ltd.), dipropylamine (Tokyo Chemical Industry Co., Ltd.), HEPES sodium salt (MP Biomedicals), metoprolol tartrate (Tokyo Chemical Industry Co., Ltd.), morpholine (Wako Pure Chemical Co., Ltd.), octopamine (MP Biomedicals), propylamine (Tokyo Chemical Industry Co., Ltd.), triethylamine (Wako Pure Chemical Co., Ltd.), timolol maleate (Wako Pure Chemical Industries, Ltd.) and tris(hydroxymethyl)aminomethane (Wako Pure Chemical Industries, Ltd.) were used. Each drug was dissolved in distilled water to prepare a sample.
In the culture, DMEM (Nissui Pharmaceutical Co., Ltd.) was used as a culture medium. […] As a control of the drug, the culture was performed in the same manner except that distilled water to which the drug was not added was added to the culture solution instead of the sample.
After the addition of the drug, the glucose concentration of each of the culture solutions was measured immediately after the start of the culture and after the completion of the culture. The glucose concentration was measured using a glucose assay kit (Waco). Then, the glucose concentration after the completion of the culture was divided by the glucose concentration immediately after the start of the culture (5.6 mmol per liter) to calculate the glucose consumption.
The fibroblasts were cultured. […] Streptozotocin, alloxan, and nicotinamide are drugs all known to produce symptoms of diabetes when administered to the body.
Next, samples of streptozotocin, alloxan, and nicotinamide plus 2-amino-1-phenylethanol (2-A-1-P) were prepared in the same manner. The concentration of 2-A-1-P was 1 mg/ml. The relative value of the glucose consumption was calculated in the same manner.
The fibroblasts were cultured.
The concentration of 2-A-1-P was 0.5 mg/ml. The relative value of the glucose consumption was calculated in the same manner.

[2] = system: rat-derived liver cancer cells (Ry121B, subculture line); assay: Lactate concentration in culture solution of liver cancer cells (relative value, control = 100); format: cell-based; conditions: drug 1 mg/ml, control = 100 (FIG. 7B)
Description: (§1) First, samples of 2-amino-1-cyclohexylethanol and 2-amino-1-phenylethanol were prepared in the same manner as in Example 1. The fibroblasts and the liver cancer cells were cultured under the same conditions as in Examples 1 and 5. […] As a control, the culture was performed in the same manner except that distilled water to which the drug was not added was added to the culture solution instead of the sample.
(§2) After the addition of the drug, the culture solution was diluted so that the weight ratio of the culture solution to distilled water was 1:19, and the lactate concentration of the diluted culture solution was measured. The lactate concentration was measured using a lactate assay kit (product name: Lactate Assay Kit-WST, product of Dojindo Laboratories).

[3] = system: Rat-derived fibroblasts (Py-3Y1-S2, subculture strain); assay: Lactate concentration in culture solution of fibroblasts (relative value, control = 100); format: cell-based; conditions: drug 1 mg/ml, control = 100 (FIG. 7A)
Description: as §1, §2

[4] = system: Py-3Y1-S2, TE-13, VERO and HepG2 cells; assay: Lactate concentration after 2 to 3 days culture, lactate metabolism, mean over four cell types (Example 9); format: cell-based, rat, human, African green monkey
Description: as §2
First, samples of 2-amino-1-cyclohexylethanol (2-amino-1-cyclohexyl EOH) and 2-amino-1-phenylethanol (2-amino-1-phenyl EOH) were prepared in the same manner as in Example 1. Four types of cells were used as in Example 8, and each of the cells was cultured under the same conditions as in Example 1. […] Thereafter, the culture time was lengthened to 2 to 3 days (48 to 72 hours) compared to Example 8. As a control 1, the culture was performed in the same manner except that distilled water to which the drug was not added was added to the culture solution instead of the sample. As a control 2, the culture was performed in the same manner as the […] except that a sample of biguanide prepared in the same manner as in Example 1 was added to the culture solution instead of the sample. Then, the lactate concentration in each sample was measured in the same manner as in Example 6. Each of the four cells was used for a total of four experiments.

[5] = system: Py-3Y1-S2, TE-13, VERO and HepG2 cells; assay: Lactate concentration after 24 to 48 hours culture, mean over four cell types (Example 8); format: cell-based, rat, human, African green monkey; conditions: drug 0.5 mg/ml, mean of five experiments in four cell types
Description: as §2
First, a sample of 2-amino-1-cyclohexylethanol (2-amino-1-cyclohexyl EOH) was prepared in the same manner as in Example 1. In addition to the rat-derived fibroblasts (Py-3Y1-S2, subculture line), human-derived esophageal cancer cells (TE-13, subculture line), African green monkey-derived kidney epithelial cells (VERO, subculture line), and human-derived hepatocellular cancer cells (HepG2, subculture line) were used and cultured under the same conditions as in Example 1. […] Thereafter, the culture solutions were further cultured for 24 to 48 hours. The culture time after the addition of the sample was set to the same condition for each cell. As a control 1, the culture was performed in the same manner except that distilled water to which the drug was not added was added to the culture solution instead of the sample. […] Then, the lactate concentration in each sample was measured in the same manner as in Example 6. […]

[6] = system: rat-derived liver cancer cells (Ry121B, subculture line); conditions: drug 1 mg/ml, control = 100
[7] = Example 3, fibroblasts, drug alone 1 mg/ml, control = 100
[8] = fibroblasts, drug 1 mg/ml, 12 to 24 hours, control = 100 (FIG. 1B, 2B)
[9] = fibroblasts, drug 0.5 mg/ml, 12 to 24 hours, control = 100 (FIG. 1A, 2A)

Molecule | relative value of glucose consumption [1, 8] | relative value of glucose consumption [1, 9] | also measured
CN(N=O)C(=O)N[C@H]1C(O)O[C@H](CO)[C@@H](O)[C@@H]1O (mixture of isomers) [streptozotocin, reference compound] |  |  | relative value of glucose consumption [1, 7]: about 90
OCC(CO)(CO)NCCCNC(CO)(CO)CO [1,3-bis[tris(hydroxymethyl)methylamino]propane] | significantly increased glucose consumption |  | 
CC(O)CN (stereo not shown) [1-amino-2-propanol] |  | significantly increased glucose consumption | 
NCC(O)C1CCCCC1 (stereo not shown) [2-amino-1-cyclohexylethanol] | significantly increased glucose consumption | significantly increased glucose consumption | relative value of lactate concentration [2]: about 140; relative value of lactate concentration [3]: about 145; lactate concentration in the culture solution compared to control 1 ([4]; drug 0.5 mg/ml, 2 to 3 days (48 to 72 hours) culture, mean of four experiments): equivalent to that of control 1; relative value of glucose consumption ([1]; Example 2, fibroblasts, drug 0.1 mg/ml, control = 100): about 120; relative value of glucose consumption ([1]; Example 2, fibroblasts, drug 0.25 mg/ml, control = 100): about 130; relative value of glucose consumption ([1]; Example 2, fibroblasts, drug 0.5 mg/ml, control = 100): about 150; lactate concentration in the culture solution [5]: 9.35 mmol/L; relative value of glucose consumption [6]: about 145
NCCO [2-aminoethanol] | significantly increased glucose consumption | significantly increased glucose consumption | 
O=S(=O)([O-])CCN1CCN(CCO)CC1.[Na+] [HEPES sodium salt] | significantly increased glucose consumption | significantly increased glucose consumption | 
OCCNC1CCCCC1 [N-cyclohexylethanolamine] | significantly increased glucose consumption | significantly increased glucose consumption | 
[O]=[V](=[O])[O][V](=[O])=[O] [V2O5, reference compound] |  |  | relative value of glucose consumption ([1]; Example 4, fibroblasts, drug alone, vanadium final concentration 1.0 mg/ml (V2O5 not printed separately)): about 115
O=C1NC(=O)C(=O)C(=O)N1 [alloxan, reference compound] |  |  | relative value of glucose consumption [1, 7]: about 70
N=C(N)NC(=N)N [biguanide, reference compound] |  |  | lactate concentration relative to Control 1 ([4]; 2 to 3 days culture after addition of biguanide, P<0.05): about 3.5 times; lactate concentration in the culture solution [5]: increased the lactate concentration
OCCNCCO [diethanolamine] | significantly increased glucose consumption | significantly increased glucose consumption | 
CCNCC [diethylamine] | significantly increased glucose consumption | significantly increased glucose consumption | 
CCCNCCC [dipropylamine] | significantly increased glucose consumption | significantly increased glucose consumption | 
COCCc1ccc(OCC(O)CNC(C)C)cc1.COCCc1ccc(OCC(O)CNC(C)C)cc1.O=C(O)C(O)C(O)C(=O)O (stereo not shown) [metoprolol tartrate, reference compound] | significantly increased glucose consumption | significantly increased glucose consumption | 
C1COCCN1 [morpholine] | significantly increased glucose consumption | significantly increased glucose consumption | 
NC(=O)c1cccnc1 [nicotinamide, reference compound] |  |  | relative value of glucose consumption [1, 7]: about 85
CCCN [propylamine] | significantly increased glucose consumption | significantly increased glucose consumption | 
CC(C)(C)NC[C@H](O)COc1nsnc1N1CCOCC1.O=C(O)/C=C\C(=O)O [timolol maleate, reference compound] | significantly increased glucose consumption | significantly increased glucose consumption | 
CCN(CC)CC [triethylamine] | significantly increased glucose consumption | significantly increased glucose consumption | 
concanavalin A [reference compound] |  |  | relative value of glucose consumption ([1]; Example 4, fibroblasts, ConA alone 100 μg/ml): about 120
tris(hydroxymethyl)aminomethane | significantly increased glucose consumption | significantly increased glucose consumption | 
